This note sets out measurements from patent US12371454B2, “Cyclic peptide compound having Kras inhibitory action” (priority 2019, dated 2025).

Each structure is given as a SMILES string. Starred links: 1 amine or outer side, 2 acyl side, 3 side chain; linkers in the order of their positions; H or OH if unused. Positions of bridges follow the written chain, without caps; N, C: chain ends. Non-standard residues stand in square brackets, D forms with d. Residues, ends and D or L forms follow the SMILES beside them. *: point of attachment. hPhe(3-Cl-4-CF3) = N[C@@H](CCc1ccc(C(F)(F)F)c(Cl)c1)C(=O)O; hPhe(4-CF3) = N[C@@H](CCc1ccc(C(F)(F)F)cc1)C(=O)O; X46 = COc1cncc(C[C@@H](C(=O)[*:2])N(C)[*:1])c1; NMePhe(4-Cl) = CN[C@@H](Cc1ccc(Cl)cc1)C(=O)O; NMePhe(2-CN) = CN[C@@H](Cc1ccccc1C#N)C(=O)O; Phe(3-Cl) = N[C@@H](Cc1cccc(Cl)c1)C(=O)O; NMeGly(cPent) = CN[C@H](C(=O)O)C1CCCC1; Phe(3-I) = N[C@@H](Cc1cccc(I)c1)C(=O)O; NMeCha = CN[C@@H](CC1CCCCC1)C(=O)O; Azetidine(3,3-F2) = FC1(F)CN(*)C1; NMeChg = CN[C@H](C(=O)O)C1CCCCC1; NMeF = CN[C@@H](Cc1ccccc1)C(=O)O; dNMeF = CN[C@H](Cc1ccccc1)C(=O)O; NMeβAla = CN(CCC(=O)[*:2])[*:1]; NMeD = CN[C@@H](CC(=O)O)C(=O)O; NMeL = CN[C@@H](CC(C)C)C(=O)O; NMeV = CN[C@H](C(=O)O)C(C)C; d(β3hA) = C[C@@H](N)CC(=O)O; NMeA = CN[C@@H](C)C(=O)O; NMeAib = CNC(C)(C)C(=O)O; Nle = CCCC[C@H](N)C(=O)O; Piperidide = C1CCN(*)CC1; Pyrrolidide = C1CCN(*)C1; dNMeA = CN[C@H](C)C(=O)O; Ac5c = NC1(C(=O)O)CCCC1; Aze = O=C(O)[C@@H]1CCN1; Sar = CNCC(=O)O

By IC50 is commonly meant the concentration that inhibits the measured activity by half.

T1 sequence (P01116 1-188 isoform P01116-2 G12D): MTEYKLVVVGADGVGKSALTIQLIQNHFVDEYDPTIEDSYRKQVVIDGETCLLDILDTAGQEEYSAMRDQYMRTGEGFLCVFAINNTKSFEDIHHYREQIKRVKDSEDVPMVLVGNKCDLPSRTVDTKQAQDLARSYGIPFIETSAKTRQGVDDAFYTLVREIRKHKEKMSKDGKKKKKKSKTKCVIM

The test concerns the target T1, Kras and SOS1 (biotin-tagged human Kras loaded with GDP, His-tagged human SOS1) (Homo sapiens, UniProt P01116, G12D).
T1 construct: made in house; host or cells: E. coli (stated for Kras only)
Put plainly: Protein-protein interaction inhibition between Kras and SOS1 (KrasGl2D-SOS PPI) using AlphaScreen. The format is binding. To be noted: AlphaScreen; biotin-tagged human Kras loaded with GDP, His-tagged human SOS1; read-out: KRAS G12D-SOS PPI IC50. In outline: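 Donor beads (nickel) hold His-SOS1; acceptor beads (streptavidin) hold biotin-Kras bound to GDP. Signal measured at 520-620 nm following 680 nm excitation.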
For orientation: Alpha assays give light when donor and acceptor beads are brought close together.
Take `CC[C@H](C)[C@@H]1NC(=O)[C@H](C)N(C)C(=O)C[C@@H](C)NC(=O)[C@H](CC(C)C)N(C)C(=O)[C@H](Cc2ccccc2)N(C)C(=O)[C@@H]2CCCN2C(=O)[C@H](CCc2ccc(C(F)(F)F)cc2)NC(=O)CN(C)C(=O)[C@H](Cc2ccc(Cl)cc2)N(C)C(=O)CN(C)C(=O)CN(C)C1=O` [Compound 751] (cyclo(I[Sar][Sar][NMePhe(4-Cl)][Sar][hPhe(4-CF3)]P[NMeF][NMeL][d(β3hA)][NMeA])): the 50% inhibitory concentration (IC50) stood at 0.082 µM.
In the case of `CC[C@H](C)[C@@H]1NC(=O)[C@H](C)N(C)C(=O)C[C@@H](C(=O)N2CCCCC2)NC(=O)[C@H](C(C)C)N(C)C(=O)[C@H](Cc2ccccc2)N(C)C(=O)[C@H](CC(C)C)N(C)C(=O)[C@H](CCc2ccc(C(F)(F)F)cc2)NC(=O)CN(C)C(=O)[C@H](Cc2ccc(Cl)cc2)N(C)C(=O)CN(C)C(=O)CN(C)C1=O` [Compound 752] ([NMeA]I[Sar][Sar][NMePhe(4-Cl)][Sar][hPhe(4-CF3)][NMeL][NMeF][NMeV]D-Piperidide; lactam N-11) it was 0.2 µM; in that of `CC[C@H](C)[C@@H]1NC(=O)CCN(C)C(=O)[C@@H](Cc2ccccc2)N(C)C(=O)[C@H](C2CCCC2)N(C)C(=O)C2(CCCC2)NC(=O)[C@@H]2CCCN2C(=O)[C@H](CCc2ccc(C(F)(F)F)c(Cl)c2)NC(=O)CN(C)C(=O)[C@H](CC2CCCCC2)N(C)C(=O)CN(C)C(=O)CN(C)C1=O` [Compound 753] (cyclo([Ac5c][NMeGly(cPent)][dNMeF][NMeβAla]I[Sar][Sar][NMeCha][Sar][hPhe(3-Cl-4-CF3)]P)), 0.035 µM; in that of `CC[C@H](C)[C@@H]1NC(=O)[C@H](C)N(C)C(=O)C[C@@H](C(=O)N2CCCC2)NC(=O)[C@H](CC(C)C)N(C)C(=O)[C@H](Cc2ccccc2)N(C)C(=O)[C@H](CC(C)C)NC(=O)[C@H](Cc2cccc(Cl)c2)NC(=O)CN(C)C(=O)[C@H](Cc2ccc(Cl)cc2)N(C)C(=O)CN(C)C(=O)CN(C)C1=O` [Compound 758] ([NMeA]I[Sar][Sar][NMePhe(4-Cl)][Sar][Phe(3-Cl)]L[NMeF][NMeL]D-Pyrrolidide; lactam N-11), 0.14 µM.
In the case of `CC[C@H](C)[C@@H]1NC(=O)[C@H](CC(C)C)N(C)C(=O)C[C@@H](C(=O)N(C)C)N(C)C(=O)[C@H](C2CCCC2)N(C)C(=O)C2(CCCC2)NC(=O)[C@H](CC(=O)N2CC(F)(F)C2)N(C)C(=O)[C@H](CCc2ccc(C(F)(F)F)c(Cl)c2)NC(=O)CN(C)C(=O)[C@H](CC2CCCCC2)N(C)C(=O)[C@@H]2CCN2C(=O)[C@H](C)N(C)C1=O` [Compound 761] ([NMeL]I[NMeA][Aze][NMeCha][Sar][hPhe(3-Cl-4-CF3)][NMeD](Azetidine(3,3-F2))[Ac5c][NMeGly(cPent)][NMeD]-NMe2; lactam N-11) it was 0.00057 µM; in that of `CCCC[C@@H]1NC(=O)C(C)(C)N(C)C(=O)[C@H](CCCC)NC(=O)[C@H](Cc2cccc(I)c2)NC(=O)CN(C)C(=O)[C@H](Cc2ccc(Cl)cc2)N(C)C(=O)CN(C)C(=O)CN(C)C(=O)[C@H]([C@@H](C)CC)NC(=O)[C@H](CC(C)C)N(C)C(=O)C[C@@H](C(=O)N2CCCCC2)N(C)C1=O` [Compound 765] ([NMeL]I[Sar][Sar][NMePhe(4-Cl)][Sar][Phe(3-I)][Nle][NMeAib][Nle][NMeD]-Piperidide; lactam N-11), 0.05 µM.
In the case of `CC[C@H](C)[C@@H]1NC(=O)[C@H](CC(C)C)N(C)C(=O)C[C@@H](C)NC(=O)[C@H](C(C)C)N(C)C(=O)C2(CCCC2)NC(=O)[C@@H]2CCCN2C(=O)[C@H](CCc2ccc(C(F)(F)F)c(Cl)c2)NC(=O)CN(C)C(=O)[C@H](Cc2ccccc2C#N)N(C)C(=O)CN(C)C(=O)CN(C)C1=O` [Compound 767] (cyclo([Ac5c][NMeV][d(β3hA)][NMeL]I[Sar][Sar][NMePhe(2-CN)][Sar][hPhe(3-Cl-4-CF3)]P)) it was 0.024 µM.
With `CC[C@H](C)[C@@H]1NC(=O)[C@H](CC(C)C)N(C)C(=O)C[C@@H](C(=O)N2CCCCC2)N(C)C(=O)[C@H](C2CCCCC2)N(C)C(=O)C2(CCCC2)NC(=O)[C@H](Cc2cncc(OC)c2)N(C)C(=O)[C@H](CCc2ccc(C(F)(F)F)c(Cl)c2)NC(=O)CN(C)C(=O)[C@H](CC2CCCCC2)N(C)C(=O)[C@@H]2CCN2C(=O)CN(C)C1=O` [Compound 770] ([NMeL]I[Sar][Aze][NMeCha][Sar][hPhe(3-Cl-4-CF3)][X46][Ac5c][NMeChg][NMeD]-Piperidide; lactam N-11), the IC50 is 0.02 µM.
As for `CC[C@H](C)[C@@H]1NC(=O)[C@H](C)N(C)C(=O)C[C@@H](C)NC(=O)[C@H](C(C)C)N(C)C(=O)C2(CCCC2)NC(=O)[C@@H]2CCCN2C(=O)[C@H](CCc2ccc(C(F)(F)F)c(Cl)c2)NC(=O)[C@@H](C)N(C)C(=O)[C@H](CC2CCCCC2)N(C)C(=O)CN(C)C(=O)CN(C)C1=O` [Compound 773] (cyclo([Ac5c][NMeV][d(β3hA)][NMeA]I[Sar][Sar][NMeCha][dNMeA][hPhe(3-Cl-4-CF3)]P)), the figure is 0.14 µM.
